Data reported in US20070148232A1, “Stabilized pharmaceutical solid compositions of low-solubility drugs and poloxamers, and stabilizing polymers” (Pfizer Inc., priority 2003, published 2007).
In brackets after ≈: the same amount, converted by molar mass. Values belong to the compound of their own block, whether it stands above or below them.

Assays:
Assay type in all cases: physicochemical
[1] = glass transition temperature (Tg) by DSC; conditions: at less than 5% RH
Source text: A solid composition was formed by a spray-drying process as follows. […] A spray solution was formed containing 2.5 wt % Viracept, 1.5 wt % Pluronic F127, 1.0 wt % HPMC, 85.5 wt % methanol, and 9.5 wt % water. The solution was mixed until the polymers and drug had all dissolved. The spray solution was pumped using a high-pressure pump to a spray drier (a Niro type XP Portable Spray-Dryer with a Liquid-Feed Process Vessel (“PSD-1”)), equipped with a pressure nozzle (model WG-126, from Delavan LTV). The PSD-1 was equipped with a 5-foot 9-inch chamber extension. The chamber extension was added to the spray dryer to increase the vertical length of the dryer. The added length increased the residence time within the dryer, which allowed the product to dry before reaching the angled section of the spray dryer. The spray drier was also equipped with a 316 SS circular diffuser plate with 1/16-inch drilled holes, having a 1% open area. […] The Tg of the resulting composition was determined by DSC to be about 107° C. at less than 5% RH.
Solid compositions containing Drug 1 were prepared using various amounts of poloxamer 407 and the stabilizing polymers hydroxypropyl methyl cellulose and hydroxypropyl methyl cellulose acetate succinate as described below. […] The Tg of each composition, measured at a relative humidity of less than 10%, is also included in Table 6.

[2] = solubility in PBS, pH 6.5; conditions: pH 6.5, aqueous buffer
[3] = in vitro dissolution test of Drug 2 compositions in PBS; conditions: dose 1000 μg/mL; for AUC90 / MDC90: initial ninety minutes; for AUC / Drug 2 Concentration: PBS, 37° C.
Procedure: The solid composition of Example 1 was evaluated in an in vitro dissolution test as follows. For each test, the composition was added to microcentrifuge tubes in duplicate. A 4.21 mg sample of the composition was added to each tube for a total concentration of 1000 μg/mL drug, if all of the drug had dissolved. The tubes were placed in a 37° C. temperature-controlled chamber, and 1.8 mL PBS containing 0.5 wt % sodium taurocholic acid and 1-palmitoyl-2-oleyl-sn-glycero-3-phosphocholine (NaTC/POPC, with a […] weight ratio) at pH 6.5 and 290mOsm/kg (model fasted duodenal solution, “MFDS”) was added to each respective tube. The samples were quickly mixed using a vortex mixer for about 60 seconds. The samples were centrifuged at 13,000 G at 37° C. for 1 minute. The resulting supernatant solution was then sampled and diluted 1:6 (by volume) with methanol and then analyzed by high-performance liquid chromatography (HPLC). The contents of each respective tube were mixed on the vortex mixer and allowed to stand undisturbed at 37° C. until the next sample was taken. Samples were collected at 4, 10, 20, 40, 90, and 1200 minutes.
A sufficient amount of the composition was added to each tube (in duplicate) for a total concentration of 1000 μg/mL drug, if all of the drug had dissolved. The tubes were placed in a 37° C. temperature-controlled chamber, and 1.8 mL PBS was added.
Control 5 (C5) consisted of crystalline Drug 2 alone, tested in PBS, and a sufficient amount of material was added so that the concentration of drug would have been 1000 μg/mL, if all the drug had dissolved.
A sufficient amount of the composition was added to each tube (in duplicate) for a total concentration of 1000 μg/mL drug, if all of the drug has dissolved. The tubes were placed in a 37° C. temperature-controlled chamber, and 1.8 mL PBS was added.
As a control (C6), a composition consisting of 25 wt % Drug 2 and 75 wt % HPMCAS-HF was formed using the rotoevaporation process described for Example 6. The composition was tested in vitro, and a sufficient amount of material was added to PBS so that the concentration of drug would have been 1000 μg/mL, if all of the drug had dissolved.

[4] = in vitro dissolution test of Drug 1 compositions in PBS; conditions: dose 1000 μg/mL; for AUC / Drug 1 Concentration: PBS, 37° C.
Procedure: The solid composition of Example 1 was evaluated in an in vitro dissolution test as follows. For each test, the composition was added to microcentrifuge tubes in duplicate. […] The samples were quickly mixed using a vortex mixer for about 60 seconds. The samples were centrifuged at 13,000 G at 37° C. for 1 minute. The resulting supernatant solution was then sampled and diluted 1:6 (by volume) with methanol and then analyzed by high-performance liquid chromatography (HPLC). The contents of each respective tube were mixed on the vortex mixer and allowed to stand undisturbed at 37° C. until the next sample was taken. Samples were collected at 4, 10, 20, 40, 90, and 1200 minutes. […] The tubes were placed in a 37° C. temperature-controlled chamber, and 1.8 mL PBS was added. As a control (C4), crystalline Drug 1 alone was tested in PBS and a sufficient amount of material was added so that the concentration of drug would have been 1000 μg/mL, if all of the drug had dissolved.

[5] = in vitro dissolution test of Drug 1 compositions in MFDS; conditions: dose 1000 μg/mL; for AUC / Drug 1 Concentration: MFDS, 37° C.
Procedure: The solid composition of Example 1 was evaluated in an in vitro dissolution test as follows. For each test, the composition was added to microcentrifuge tubes in duplicate. […] The samples were quickly mixed using a vortex mixer for about 60 seconds. The samples were centrifuged at 13,000 G at 37° C. for 1 minute. The resulting supernatant solution was then sampled and diluted 1:6 (by volume) with methanol and then analyzed by high-performance liquid chromatography (HPLC). The contents of each respective tube were mixed on the vortex mixer and allowed to stand undisturbed at 37° C. until the next sample was taken. Samples were collected at 4, 10, 20, 40, 90, and 1200 minutes. As a control (C1), crystalline Drug 1 alone was added 1.8 mL of MFDS, at a sufficient amount so that the concentration of drug would have been 1000 μg/mL, if all of the drug had dissolved. […] Control C2 consisted of 50 wt % Drug 1 and 50 wt % HPMC. The composition was formed by first forming a spray solution consisting of […] Drug 1 and 250 mg HPMC in 58.7 gm of a 50.7:8 w/w mixture of acetone:water. This solution was pumped into a “mini” spray-drying apparatus via a Cole Parmer 74900 series rate-controlling syringe pump at a rate of 70 ml/hr. The spray solution was atomized through a Spraying Systems Co. two-fluid nozzle, Model No. SU1A, using a heated stream of nitrogen at a flow rate of 1 SCFM. The spray solution was sprayed into an 11-cm diameter stainless steel chamber. The heated gas entered the chamber at an inlet temperature of 110° C. and exited at ambient temperature. The resulting solid composition was collected on filter paper, dried under vacuum, and stored in a desiccator. This composition was tested in a dissolution test using the procedures described above except that a sufficient amount of the composition was added so that the concentration if all of the drug had dissolved would have been 3000 μg/mL. The stability of the solid composition of Example 1 was evaluated in an accelerated storage test. The composition was stored under elevated temperature and humidity conditions to increase the rate of physical changes occurring in the material in order to simulate a longer storage interval in a typical storage environment. A sample of the composition was stored for 3 weeks at 40° C./75% RH.

[6] = Drug 1, PBS, initial ninety minutes
[7] = Drug 1, MFDS, initial ninety minutes

Tg [1]: 119 °C
solubility [2]: ~20 µg/mL (≈ 35.2 µM)
AUC90 ([3]; Drug 2, PBS): <100 µg·min/mL
MDC90 ([3]; Drug 2, PBS): <1 µg/mL
AUC90 [4, 6]: 285 µg·min/mL
MDC90 [4, 6]: 6 µg/mL
AUC ([4]; 0 min): 0 µg·min/mL
Drug 1 Concentration ([4]; 0 min): 0 µg/mL
AUC ([4]; 4 min): 11 µg·min/mL
Drug 1 Concentration ([4]; 4 min): 5 µg/mL
AUC ([4]; 10 min): 46 µg·min/mL
Drug 1 Concentration ([4]; 10 min): 6 µg/mL
AUC ([4]; 20 min): 106 µg·min/mL
Drug 1 Concentration ([4]; 20 min): 6 µg/mL
AUC ([4]; 40 min): 180 µg·min/mL
Drug 1 Concentration ([4]; 40 min): 2 µg/mL
AUC ([4]; 90 min): 285 µg·min/mL
Drug 1 Concentration ([4]; 90 min): 2 µg/mL
AUC ([4]; 1200 min): 12,730 min*μg/mL
Drug 1 Concentration ([4]; 1200 min): 20 µg/mL
AUC90 [5, 7]: 9,500 min*μg/mL
MDC90 [5, 7]: 118 µg/mL
AUC ([5]; 0 min): 0 µg·min/mL
Drug 1 Concentration ([5]; 0 min): 0 µg/mL
AUC ([5]; 4 min): 160 µg·min/mL
Drug 1 Concentration ([5]; 4 min): 80 µg/mL
AUC ([5]; 10 min): 700 µg·min/mL
Drug 1 Concentration ([5]; 10 min): 98 µg/mL
AUC ([5]; 20 min): 1,700 min*μg/mL
Drug 1 Concentration ([5]; 20 min): 102 µg/mL
AUC ([5]; 40 min): 3,800 min*μg/mL
Drug 1 Concentration ([5]; 40 min): 108 µg/mL
AUC ([5]; 90 min): 9,500 min*μg/mL
Drug 1 Concentration ([5]; 90 min): 118 µg/mL
AUC ([5]; 1200 min): 247,000 min*μg/mL
Drug 1 Concentration ([5]; 1200 min): 310 µg/mL
SMILES: Cc1c(O)cccc1C(=O)N[C@@H](CSc1ccccc1)[C@H](O)CN1C[C@H]2CCCC[C@H]2C[C@H]1C(=O)NC(C)(C)C [Drug 1, N-(1,1-dimethylethyl)decahydro-2-[(2R,3R)-2-hydroxy-3[(3-hydroxy-2-methylbenzoyl)amino]-4-(phenylthio)butyl]-3-isoquinolinecarboxamide (3s, 4aS, 8aS)-monomethanesulfonate]

Tg [1]: about 30 °C
solubility [2]: < 1 µg/mL
C1200 ([3]; Drug 2, PBS, concentration of drug at 1200 minutes): <1 µg/mL
AUC90 ([3]; Drug 2, PBS): <100 µg·min/mL
MDC90 ([3]; Drug 2, PBS): <1 µg/mL
AUC ([3]; 0 min): <100 µg·min/mL
Drug 2 Concentration ([3]; 0 min): <1 µg/mL
AUC ([3]; 4 min): <100 µg·min/mL
Drug 2 Concentration ([3]; 4 min): <1 µg/mL
AUC ([3]; 10 min): <100 µg·min/mL
Drug 2 Concentration ([3]; 10 min): <1 µg/mL
AUC ([3]; 20 min): <100 µg·min/mL
Drug 2 Concentration ([3]; 20 min): <1 µg/mL
AUC ([3]; 40 min): <100 µg·min/mL
Drug 2 Concentration ([3]; 40 min): <1 µg/mL
AUC ([3]; 90 min): <100 µg·min/mL
Drug 2 Concentration ([3]; 90 min): <1 µg/mL
AUC ([3]; 1200 min): <100 µg·min/mL
Drug 2 Concentration ([3]; 1200 min): <1 µg/mL
SMILES: CCOC(=O)N1c2ccc(C(F)(F)F)cc2[C@@H](N(Cc2cc(C(F)(F)F)cc(C(F)(F)F)c2)C(=O)OC)C[C@H]1CC [Drug 2, [2R,4S] 4-[(3,5-bis-trifluoromethyl-benzyl)-methoxycarbonyl-amino]-2-ethyl-6-trifluoromethyl-3,4-dihydro-2H-quinoline-1-carboxylic acid ethyl ester]
